Data reported in patent publication US10781197B2, “Sulfonamide analogues of galiellalactone” (GLACTONE PHARMA DEVELOPMENT AB, priority 2016, dated 2020).

System: STAT3 signaling
Assay: STAT3 Luciferase reporter gene assay
Type: cell-based
Conditions: not given
Method: The ability to inhibit STAT3 signaling of the example compounds in comparison to galiellalactone was evaluated using a STAT3 Luciferase reporter gene assay.
Compounds were tested for dose response activity to determine IC50 at eight different doses (0.03, 0.1, 0.3, 1, 3, 10, 30 and 100 μM) in triplicate on the STAT3 reporter system.
Briefly, the STAT3 reporter/HEK293 cell line was plated in 96-well white plates for 16 h. Cells were pretreated with compounds for 1 h. Cells were then treated with IL-6 to induce STAT3 activation for 16 h. Luciferase activity was measured and analyzed.

Row | SMILES | activity in the STAT3 reporter assay (in words)
1 | Cc1ccc(S(=O)(=O)N(C)[C@@]2(C)C=C3C(=O)O[C@@H]4CC[C@H](C2)[C@]34O)cc1 [Example 23, N-[(4R,7R,9R,11 S)-11-Hydroxy-9-methyl-2-oxo-3-oxatricyclo[5.3.1.0^4,11]undec-1(10)-en-9-yl]-N,4-dimethylbenzene-1-sulfonamide] | significantly reduced or total loss of activity

Same assay, conditions: Homo sapiens; STAT3 reporter/HEK293 cell line, 1 h pretreatment, IL-6 induced for 16 h, luciferase activity; read-out: IC50

Row | SMILES | IC50 [µM]
2 | C[C@]1(NS(=O)(=O)c2ccccc2)C=C2C(=O)O[C@@H]3CCC(C1)[C@]23O (stereo partly drawn) [Example 2, N-[(4R,7R,9R,11S)-11-Hydroxy-9-methyl-2-oxo-3-oxatricyclo[5.3.1.0^4,^11]undec-1(10)-en-9-yl]benzenesulfonamide] | 3
3 | COc1ccc(S(=O)(=O)N[C@@]2(C)C=C3C(=O)O[C@@H]4CCC(C2)[C@]34O)cc1 (stereo partly drawn) [Example 3, N-[(4R,7R,9R,11S)-11-Hydroxy-9-methyl-2-oxo-3-oxatricyclo[5.3.1.0^4,^11]undec-1(10)-en-9-yl]-4-methoxybenzene-1-sulfonamide] | 8.41
4 | C[C@]1(NS(=O)(=O)c2ccccc2[N+](=O)[O-])C=C2C(=O)O[C@@H]3CCC(C1)[C@]23O (stereo partly drawn) [Example 4, N-[(4R,7R,9R,11S)-11-Hydroxy-9-methyl-2-oxo-3-oxatricyclo[5.3.1.0^4,^11]undec-1(10)-en-9-yl]-2-nitrobenzene-1-sulfonamide] | 6.71
5 | C[C@]1(NS(=O)(=O)c2ccc(C(F)(F)F)cc2)C=C2C(=O)O[C@@H]3CCC(C1)[C@]23O (stereo partly drawn) [Example 5, N-[(4R,7R,9R,11S)-11-Hydroxy-9-methyl-2-oxo-3-oxatricyclo[5.3.1.0^4,^11]undec-1(10)-en-9-yl]-4-(trifluoromethyl)benzene-1-sulfonamide] | 1.76
6 | Cc1cccc(S(=O)(=O)N[C@@]2(C)C=C3C(=O)O[C@@H]4CCC(C2)[C@]34O)c1 (stereo partly drawn) [Example 6, N-[(4R,7R,9R,11S)-11-Hydroxy-9-methyl-2-oxo-3-oxatricyclo[5.3.1.0^4,^11]undec-1(10)-en-9-yl]-3-methylbenzene-1-sulfonamide] | 6.76
7 | C[C@]1(NS(=O)(=O)c2ccccc2F)C=C2C(=O)O[C@@H]3CCC(C1)[C@]23O (stereo partly drawn) [Example 7, 2-Fluoro-N-[(4R,7R,9R,11S)-11-hydroxy-9-methyl-2-oxo-3-oxatricyclo[5.3.1.0^4,^11]undec-1(10)-en-9-yl]benzene-1-sulfonamide] | 4.69
8 | C[C@]1(NS(=O)(=O)c2ccc([N+](=O)[O-])cc2)C=C2C(=O)O[C@@H]3CCC(C1)[C@]23O (stereo partly drawn) [Example 8, N-[(4R,7R,9R,11S)-11-Hydroxy-9-methyl-2-oxo-3-oxatricyclo[5.3.1.0^4,^11]undec-1(10)-en-9-yl]-4-nitrobenzene-1-sulfonamide] | 5.05
9 | C[C@]1(NS(=O)(=O)c2ccc(C#N)cc2)C=C2C(=O)O[C@@H]3CCC(C1)[C@]23O (stereo partly drawn) [Example 9, 4-Cyano-N-[(4R,7R,9R,11S)-11-hydroxy-9-methyl-2-oxo-3-oxatricyclo[5.3.1.0^4,^11]undec-1(10)-en-9-yl]benzene-1-sulfonamide] | 9.31
10 | C[C@]1(NS(=O)(=O)c2ccc(Br)cc2)C=C2C(=O)O[C@@H]3CCC(C1)[C@]23O (stereo partly drawn) [Example 10, 4-Bromo-N-[(4R,7R,9R,11S)-11-hydroxy-9-methyl-2-oxo-3-oxatricyclo[5.3.1.0^4,^11]undec-1(10)-en-9-yl]benzene-1-sulfonamide] | 3.2
11 | C[C@]1(NS(=O)(=O)c2ccc(C3=NCCO3)cc2)C=C2C(=O)O[C@@H]3CCC(C1)[C@]23O (stereo partly drawn) [Example 11, 4-(4,5-Dihydro-1,3-oxazol-2-yl)-N-[(4R,7R,9R,11S)-11-hydroxy-9-methyl-2-oxo-3-oxatricyclo[5.3.1.0^4,^11]undec-1(10)-en-9-yl]benzene-1-sulfonamide] | 0.24
12 | Cc1ccc(S(=O)(=O)N[C@@]2(C)C=C3C(=O)O[C@@H]4CCC(C2)[C@]34O)nc1 (stereo partly drawn) [Example 12, N-[(4R,7R,9R,11S)-11-Hydroxy-9-methyl-2-oxo-3-oxatricyclo[5.3.1.0^4,^11]undec-1(10)-en-9-yl]-5-methylpyridine-2-sulfonamide] | 3.38
13 | Cc1ccc(S(=O)(=O)N[C@@]2(C)C=C3C(=O)O[C@@H]4CCC(C2)[C@]34O)cn1 (stereo partly drawn) [Example 13, N-[(4R,7R,9R,11S)-11-Hydroxy-9-methyl-2-oxo-3-oxatricyclo[5.3.1.0^4,^11]undec-1(10)-en-9-yl]-6-methylpyridine-3-sulfonamide] | 5.65
14 | Cc1ccc(S(=O)(=O)N[C@@]2(C)C=C3C(=O)O[C@@H]4CCC(C2)[C@]34O)s1 (stereo partly drawn) [Example 14, N-[(4R,7R,9R,11S)-11-Hydroxy-9-methyl-2-oxo-3-oxatricyclo[5.3.1.0^4,^11]undec-1(10)-en-9-yl]-5-methylthiophene-2-sulfonamide] | 6.78
15 | C[C@]1(NS(=O)(=O)c2ccc(C(F)(F)F)cc2Cl)C=C2C(=O)O[C@@H]3CCC(C1)[C@]23O (stereo partly drawn) [Example 15, 2-Chloro-N-[(4R,7R,9R,11S)-11-hydroxy-9-methyl-2-oxo-3-oxatricyclo[5.3.1.0^4,^11]undec-1(10)-en-9-yl]-4-(trifluoromethyl)benzene-1-sulfonamide] | 2.9
16 | Cc1ccc(S(=O)(=O)N[C@@]2(C)C=C3C(=O)O[C@@H]4CCC(C2)[C@]34O)cc1F (stereo partly drawn) [Example 16, 3-Fluoro-N-[(4R,7R,9R,11S)-11-hydroxy-9-methyl-2-oxo-3-oxatricyclo[5.3.1.0^4,^11]undec-1(10)-en-9-yl]-4-methylbenzene-1-sulfonamide] | 4.5
17 | C[C@]1(NS(=O)(=O)c2ccc(F)cc2)C=C2C(=O)O[C@@H]3CCC(C1)[C@]23O (stereo partly drawn) [Example 17, 4-Fluoro-N-[(4R,7R,9R,11S)-11-hydroxy-9-methyl-2-oxo-3-oxatricyclo[5.3.1.0^4,^11]undec-1(10)-en-9-yl]benzene-1-sulfonamide] | 3.16
18 | C[C@]1(NS(=O)(=O)c2ccc(Cl)cc2)C=C2C(=O)O[C@@H]3CCC(C1)[C@]23O (stereo partly drawn) [Example 18, 4-Chloro-N-[(4R,7R,9R,11S)-11-hydroxy-9-methyl-2-oxo-3-oxatricyclo[5.3.1.0^4,^11]undec-1(10)-en-9-yl]benzene-1-sulfonamide] | 2.26
19 | Cc1ccc(CS(=O)(=O)N[C@@]2(C)C=C3C(=O)O[C@@H]4CCC(C2)[C@]34O)cc1 (stereo partly drawn) [Example 19, N-[(4R,7R,9R,11S)-11-Hydroxy-9-methyl-2-oxo-3-oxatricyclo[5.3.1.0^4,^11]undec-1(10)-en-9-yl]-1-(4-methylphenyl)methanesulfonamide] | 9.69
20 | C[C@]1(NS(=O)(=O)c2ccc(N)cc2)C=C2C(=O)O[C@@H]3CC[C@H](C1)[C@]23O [Example 21, 4-Amino-N-[(4R,7R,9R,11 S)-11-hydroxy-9-methyl-2-oxo-3-oxatricyclo[5.3.1.0^4,11]undec-1(10)-en-9-yl]benzene-1-sulfonamide] | 3.63
21 | C[C@]1(NS(=O)(=O)c2ccc(CO)cc2)C=C2C(=O)O[C@@H]3CC[C@H](C1)[C@]23O [Example 22, N-[(4R,7R,9R,11S)-11-Hydroxy-9-methyl-2-oxo-3-oxatricyclo[5.3.1.0^4,11]undec-1(10)-en-9-yl]-4-(hydroxymethyl)benzene-1-sulfonamide] | 11.4

Same assay, conditions: STAT3 reporter/HEK293 cell line, 1 h pretreatment, IL-6 induced for 16 h, luciferase activity

Row | SMILES | IC50
22 | Cc1ccc(S(=O)(=O)N(C)[C@@]2(C)C=C3C(=O)O[C@@H]4CC[C@H](C2)[C@]34O)cc1 [Example 23, N-[(4R,7R,9R,11 S)-11-Hydroxy-9-methyl-2-oxo-3-oxatricyclo[5.3.1.0^4,11]undec-1(10)-en-9-yl]-N,4-dimethylbenzene-1-sulfonamide] | inactive

Same assay, conditions: listed as example 23

Row | SMILES | activity in the STAT3 reporter assay (in words)
23 | Cc1ccc(S(=O)(=O)N(C)[C@@]2(C)C=C3C(=O)O[C@@H]4CC[C@H](C2)[C@]34O)cc1 [Example 23, N-[(4R,7R,9R,11 S)-11-Hydroxy-9-methyl-2-oxo-3-oxatricyclo[5.3.1.0^4,11]undec-1(10)-en-9-yl]-N,4-dimethylbenzene-1-sulfonamide] | no or low activity
